Measured values published in PMC12249917, “Novel Au(I)- and Ag(I)-NHC Complexes with N-Boc-Protected Proline as Potential Candidates for Neurodegenerative Disorders” (International Journal of Molecular Sciences, 2025).
Read-outs that look alike come from different tables or passages of the source.

Key:
hMAO-B = biological target: T1, hMAO-B (Homo sapiens, UniProt P27338); assay type: biochemical; conditions: for IC50: mean ± S.D., three experiments in triplicate
T1 sequence (P27338 1-520): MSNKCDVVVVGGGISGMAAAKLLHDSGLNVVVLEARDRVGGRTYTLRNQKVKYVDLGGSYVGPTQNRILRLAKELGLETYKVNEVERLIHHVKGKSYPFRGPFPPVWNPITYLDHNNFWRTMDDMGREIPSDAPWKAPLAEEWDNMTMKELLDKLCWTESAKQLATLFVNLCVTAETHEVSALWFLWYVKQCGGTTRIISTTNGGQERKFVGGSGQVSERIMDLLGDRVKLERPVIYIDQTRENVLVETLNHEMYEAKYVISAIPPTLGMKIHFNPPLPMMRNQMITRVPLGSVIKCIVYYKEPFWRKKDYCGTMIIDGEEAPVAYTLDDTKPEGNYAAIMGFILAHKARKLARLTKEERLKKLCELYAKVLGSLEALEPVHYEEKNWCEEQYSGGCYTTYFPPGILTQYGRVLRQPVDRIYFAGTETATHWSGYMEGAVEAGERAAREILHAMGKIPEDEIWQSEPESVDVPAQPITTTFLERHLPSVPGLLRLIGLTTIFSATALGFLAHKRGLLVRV
Method: (§1) Altered levels of MAO-A/B are associated with the degeneration of neurotransmitter biogenic amines such as serotonin, noradrenaline, and dopamine and are implicated in several diseases, such as depression, cancer, PD, and AD [27]. With this in mind, we explored the potential of these complexes in inhibiting human MAO (hMAO) isoforms.
(§2) The inhibitory activity of the gold and silver complexes against hMAO-A and hMAO-B was evaluated using a previously published protocol. […] Data analysis was performed using GraphPad PRISM 9 (GraphPad Software®, San Diego, CA, USA). IC50 values were determined from the dose–response curves and were presented as the mean ± SD of three independent experiments, each conducted in triplicate.

hMAO-A = biological target: T2, hMAO-A (Homo sapiens, UniProt P21397); test: hMAO-A inhibitory activity; assay type: biochemical
T2 sequence (P21397 1-527): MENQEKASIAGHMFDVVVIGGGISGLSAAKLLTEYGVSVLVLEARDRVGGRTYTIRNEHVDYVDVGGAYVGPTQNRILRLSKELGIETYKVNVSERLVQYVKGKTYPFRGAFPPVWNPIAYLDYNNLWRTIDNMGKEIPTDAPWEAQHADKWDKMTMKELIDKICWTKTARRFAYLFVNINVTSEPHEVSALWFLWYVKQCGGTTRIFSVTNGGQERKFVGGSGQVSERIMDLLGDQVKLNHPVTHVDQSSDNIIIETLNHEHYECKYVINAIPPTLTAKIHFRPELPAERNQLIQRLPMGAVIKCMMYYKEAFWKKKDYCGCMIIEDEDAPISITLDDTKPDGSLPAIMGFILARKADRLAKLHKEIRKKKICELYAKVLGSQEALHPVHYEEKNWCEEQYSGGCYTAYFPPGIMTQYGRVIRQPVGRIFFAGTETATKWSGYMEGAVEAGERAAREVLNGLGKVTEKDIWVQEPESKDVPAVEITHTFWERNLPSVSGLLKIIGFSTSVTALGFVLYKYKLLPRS
Method: as §1, §2

[1] = test system: NO production in LPS-stimulated RAW 264.7 murine macrophages (iNOS); test: Griess assay, NO production (iNOS) in LPS-stimulated RAW 264.7 macrophages; assay type: cell-based; conditions: for inhibition of NO production: 5 µM
Method: As a positive control, the nonsteroidal anti-inflammatory drug (NSAID) Indomethacin (Ind) was used.
Then, the cell culture medium was combined with an equal volume of Griess reagent at 40 mg/mL (ratio 1:1), and after a 30 min incubation with agitation, the optical density was measured at 540 nm. The levels of NO vs. LPS were calculated from the absorbance measurements using the following formula:(1) INO vs LPS (%)=ABSLPS−ABSSample/ABSLPS∗100 where ABSLPS represents the average absorbance of cells treated with LPS alone, and ABSsample represents the average absorbance of cells treated with both LPS and the tested complexes or Indomethacin.
NO production was induced by LPS (1 µg/mL). […] Salmon histograms: MTT assays performed in same experimental conditions in order to verify effect on RAW 264.7 cells’ viability of Indomethacin and tested complexes. Data were plotted as % of cell viability with respect to viability with LPS-only treatment (1 µg/mL).

RAW 264.7 cells = test: MTT cell viability, RAW 264.7; assay type: cell-based, murine; conditions: RAW 264.7, MTT, 24 h
Method: 3-(4,5-dimethylthiazol-2-yl)-2,5-diphenyl-2H-tetrazolium bromide (MTT) was added to the cells in order to measure the cell viability at 24 h, as previously reported. IC50 values were determined from the dose–response curves for both NO inhibition (%) and the cell viability (%) using GraphPad Prism 9 software (GraphPad Software, La Jolla, CA, USA) and were presented as the mean ± SD of three independent experiments, each conducted in triplicate.
Figure 2 Brown histograms: Anti-inflammatory activity in terms of NO production inhibition (%), measured in vitro using RAW 264.7 murine macrophages. NO production was induced by LPS (1 µg/mL). Data were plotted as % NO inhibition with respect to inhibition with LPS-only treatment. Salmon histograms: MTT assays performed in same experimental conditions in order to verify effect on RAW 264.7 cells’ viability of Indomethacin and tested complexes. Data were plotted as % of cell viability with respect to viability with LPS-only treatment (1 µg/mL). Indomethacin (Ind) was used at concentration of 25 µM, while all other complexes were used at 5 µM, for 24 h. Bars ± SDs are shown (n = 3). ** p < 0.01 and **** p < 0.0001 for complex 3bP and Ind vs. LPS only; not significant (n.s.) where not indicated.

[2] = biological target: electric eel acetylcholinesterase (eeAChE) (Electrophorus electricus, UniProt O42275)
Method: (§3) The enzyme-inhibiting properties of the Au and Ag complexes against electric eel acetylcholinesterase (eeAChE) and equine butyrylcholinesterase (eqBChE) were assessed via a modified Ellman assay. […] A buffer-only control was included. The inhibition potency (IC50) was calculated from triplicate dose–response data, presented as the mean ± SD.

[3] = biological target: equine butyrylcholinesterase (eqBChE) (Equus caballus, UniProt P81908)
Method: as §3

[4] = test system: intracellular ROS production in 3T3-L1 murine fibroblasts; test: Intracellular ROS (H2DCF-DA) in menadione-treated 3T3-L1 fibroblasts; assay type: cell-based; conditions: menadione 25 µM, 15 min; for ROS production reduced to, compared to Men treatment alone: 24 h
Method: N-acetyl-cysteine (NAC), a powerful antioxidant, was used as a positive control.
The antioxidant capacity of the Au and Ag complexes was evaluated in 3T3-L1 murine fibroblasts by assessing the intracellular reactive oxygen species (ROS) levels using a DCFH2-DA assay, following a previously established method [36]. The cells were seeded in 96-well plates and incubated with the tested complexes at concentrations of between 0.1 and 20 µM for a 24 h period. […] N-acetylcysteine (NAC), a recognized antioxidant, served as a positive control at 20 mM. […] The % of ROS production inhibition (IROS) vs. that of the menadione-treated cells was calculated using the following formula:(2) IROS vs Men (%)=FMen−FSample/FMen∗100 where FMen represents the average fluorescence of the cells treated with menadione alone, and Fsample represents the average fluorescence of the cells treated with both menadione and the tested complexes or NAC.
Data were plotted as % ROS inhibition with respect to inhibition with Men-only treatment.

[5] = mean ± S.D., three experiments in triplicate, read-out: IC50 (µM) hMAO-A
[6] = LPS 1 µg/mL, RAW 264.7, 24 h, read-out: IC50 (µM) NO Inhibition
[7] = read-out: IC50 (µM) eeAChE, mean ± S.D., three experiments in triplicate
[8] = read-out: IC50 (µM) eqBChE, mean ± S.D., three experiments in triplicate
[9] = Table S2, experimentally derived IC50, read-out: IC50 (μM), hMAOA (Table S2)
[10] = read-out: IC50 (μM), hBChE (Table S1), Table S1, experimentally derived IC50, column headed hBChE
[11] = read-out: IC50 (μM), hAChE (Table S1), Table S1, experimentally derived IC50, column headed hAChE

electric eel acetylcholinesterase (eeAChE), sequence (O42275 24-633): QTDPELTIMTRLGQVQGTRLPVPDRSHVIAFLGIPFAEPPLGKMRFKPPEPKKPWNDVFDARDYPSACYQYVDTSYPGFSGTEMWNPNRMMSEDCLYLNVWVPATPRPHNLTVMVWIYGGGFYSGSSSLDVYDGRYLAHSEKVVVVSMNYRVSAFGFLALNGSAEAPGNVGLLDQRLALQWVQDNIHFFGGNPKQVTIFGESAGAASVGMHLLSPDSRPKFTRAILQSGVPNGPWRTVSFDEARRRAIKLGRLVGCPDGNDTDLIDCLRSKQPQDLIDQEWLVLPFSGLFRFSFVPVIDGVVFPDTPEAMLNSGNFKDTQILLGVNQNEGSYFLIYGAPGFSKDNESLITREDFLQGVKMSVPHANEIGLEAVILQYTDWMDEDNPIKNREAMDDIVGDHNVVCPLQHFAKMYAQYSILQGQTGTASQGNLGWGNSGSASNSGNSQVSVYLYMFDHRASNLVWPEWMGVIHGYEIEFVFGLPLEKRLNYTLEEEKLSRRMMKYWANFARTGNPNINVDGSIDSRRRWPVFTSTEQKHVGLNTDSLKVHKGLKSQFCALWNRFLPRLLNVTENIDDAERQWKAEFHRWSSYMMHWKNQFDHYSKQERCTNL
equine butyrylcholinesterase (eqBChE), sequence (P81908 whole entry): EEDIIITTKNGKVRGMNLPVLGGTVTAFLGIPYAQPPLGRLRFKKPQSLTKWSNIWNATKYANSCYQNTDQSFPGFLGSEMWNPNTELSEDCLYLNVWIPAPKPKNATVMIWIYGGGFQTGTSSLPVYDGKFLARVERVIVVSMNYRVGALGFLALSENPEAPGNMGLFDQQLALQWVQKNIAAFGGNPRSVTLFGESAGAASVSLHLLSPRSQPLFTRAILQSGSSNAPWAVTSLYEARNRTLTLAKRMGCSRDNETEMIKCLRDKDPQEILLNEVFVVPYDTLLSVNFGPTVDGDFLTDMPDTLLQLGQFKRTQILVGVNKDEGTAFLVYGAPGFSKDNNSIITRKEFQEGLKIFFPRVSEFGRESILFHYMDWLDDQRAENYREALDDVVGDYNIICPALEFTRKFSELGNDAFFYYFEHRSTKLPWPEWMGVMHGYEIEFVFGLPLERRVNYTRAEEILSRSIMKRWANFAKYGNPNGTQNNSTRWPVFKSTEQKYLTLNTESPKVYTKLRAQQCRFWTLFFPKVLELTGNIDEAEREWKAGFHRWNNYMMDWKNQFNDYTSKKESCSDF

Structure (SMILES) | IC50 (hMAO-B) [µM] | IC50 (hMAO-A; [5]) [µM] | IC50 [1, 6] [µM] | IC50 (RAW 264.7 cells) [µM] | IC50 [2, 7] [µM] | IC50 [3, 8] [µM] | SI, hMAO-B selectivity index = IC50(hMAO-A)/IC50(hMAO-B) (hMAO-B) | SI, eqBChE selectivity index = IC50(eeAChE)/IC50(eqBChE) [3] | IC50 (hMAO-A; [9]) [µM] | IC50 [3, 10] [µM] | IC50 [2, 11] [µM] | inhibition of NO production ([1]; 24 h, vs LPS-only treatment) | IC50 ([1]; Table S3, experimentally derived IC50, read-out: IC50 (μM), iNOS (Table S3)) [µM] | ROS production reduced to, compared to Men treatment alone ([4]; 1 µM) | ROS production reduced to, compared to Men treatment alone ([4]; 10 µM) | inhibition at 25 µM ([1]; Mus musculus, RAW264.7, 25 µM, 24 h, vs LPS-only treatment) [%] | IC50 ([1]; Mus musculus, RAW264.7, LPS 1 µg/mL, RAW 264.7, 24 h, read-out: IC50 (µM) NO Inhibition) [µM] | IC50 (RAW 264.7 cells; Mus musculus, RAW264.7) [µM] | ROS formation reduced to [4]
C[n+]1ccn(CC(O)c2ccccc2)[c]1[Ag-][O]C(=O)[C@@H]1CCCN1C(=O)OC(C)(C)C (some centres unmarked) [1aP] | > 25 | > 25 | > 50 | > 50 | > 25 | > 25 |  |  |  |  |  |  |  |  |  |  |  |  | 
C[n+]1ccn(CC(O)c2ccccc2)[c]1[Au-][O]C(=O)[C@@H]1CCCN1C(=O)OC(C)(C)C (some centres unmarked) [1bP] | 3.78 ± 0.16 | 1.32 ± 0.02 | > 50 | > 50 | 18.4 ± 1.43 | 6.19 ± 0.91 | 0.35 | 2.97 |  |  |  |  |  |  |  |  |  |  | 
C[n+]1c(Cl)c(Cl)n(CC(O)c2ccccc2)[c]1[Ag-][O]C(=O)[C@@H]1CCCN1C(=O)OC(C)(C)C (some centres unmarked) [2aP] | 9.82 ± 0.84 | 15 ± 1.02 | > 50 | > 50 | > 25 | 18.2 ± 2.4 | 1.53 | >1.37 | 15 ± 0.9 | 18.2 ± 0.02 |  |  |  |  |  |  |  |  | 
C[n+]1c(Cl)c(Cl)n(CC(O)c2ccccc2)[c]1[Au-][O]C(=O)[C@@H]1CCCN1C(=O)OC(C)(C)C (some centres unmarked) [2bP] | 1.94 ± 0.09 | 0.72 ± 0.02 | 32.3 ± 1.82 | > 50 | 4.68 ± 0.47 | 3.14 ± 0.33 | 0.37 | 1.49 |  | 3.1 ± 0.02 | 4.7 ± 0.02 |  |  |  |  |  |  |  | 
C[n+]1c(-c2ccccc2)c(-c2ccccc2)n(CC(O)c2ccccc2)[c]1[Ag-][O]C(=O)[C@@H]1CCCN1C(=O)OC(C)(C)C (some centres unmarked) [3aP] | > 25 | 25 ± 2.95 | 30.9 ± 1.74 | > 50 | > 25 | 17.4 ± 0.98 |  | >1.44 |  |  |  | approximately 8% |  |  |  |  |  |  | 
C[n+]1c(-c2ccccc2)c(-c2ccccc2)n(CC(O)c2ccccc2)[c]1[Au-][O]C(=O)[C@@H]1CCCN1C(=O)OC(C)(C)C (some centres unmarked) [3bP] | 4.75 ± 0.75 | 1.84 ± 0.18 | 4.88 ± 0.58 | 20.3 ± 1.26 | 5.89 ± 0.56 | > 25 | 0.39 |  |  |  |  | about 52% | 4.9 ± 0.5 | approximately 70% |  |  |  |  | 
C[n+]1[c]([Ag-][O]C(=O)[C@@H]2CCCN2C(=O)OC(C)(C)C)n(CC(O)c2ccccc2)c2ccccc21 (some centres unmarked) [4aP] | 10.4 ± 1.95 | 3.32 ± 0.15 | > 50 | > 50 | 14 ± 0.72 | 5.19 ± 0.95 | 0.32 | 2.68 | 3.3 ± 0.01 | 5.2 ± 0.05 | 13.9 ± 0.01 |  |  |  |  |  |  |  | 
C[n+]1[c]([Au-][O]C(=O)[C@@H]2CCCN2C(=O)OC(C)(C)C)n(CC(O)c2ccccc2)c2ccccc21 (some centres unmarked) [4bP] | 2.1 ± 0.2 | 0.0713 | 13.1 ± 0.92 | 12.1 ± 1.03 | 3.72 ± 0.44 | 0.45 ± 0.06 | 0.03 | 8.27 |  |  | 3.7 ± 0.02 |  |  |  | approximately 60% |  |  |  | 
COc1ccc2c(c1)c(CC(=O)O)c(C)n2C(=O)c1ccc(Cl)cc1 [Indomethacin, reference compound] |  |  |  |  |  |  |  |  |  |  |  |  |  |  |  | ~20 | > 50 | > 50 | 
CC(=O)N[C@@H](CS)C(=O)O [NAC, N-acetyl-cysteine, reference compound] |  |  |  |  |  |  |  |  |  |  |  |  |  |  |  |  |  |  | approximately 70%
